Laboratory results as given in PMC12385147, “Discovery of Novel 2-Substituted Aniline Pyrimidine Based Derivatives as Potent Mer/c-Met Dual Inhibitors with Improvement Bioavailability” (Biomolecules, 2025).

Columns and labels:
[1] = cited from earlier work
[2] = cited from earlier work; remark: listed apart in the source
[3] = cited from earlier work; remark: listed apart in the source
xenograft models = system: xenograft models; design: method as in PMID 29554921; conditions: cited from earlier work
HCT116 = assay: Antiproliferation CCK-8 assay, HCT116; type: cell-based; conditions: Homo sapiens, HCT-116; CCK-8, 72 h; read-out: IC50 HCT116
Procedure: (§1) The HepG2, MDA-MB-231, and HCT116 cell lines were derived from our own laboratory (the laboratory of our collaborator, Dr. Xiaolei Zhou, at College of Food Science and Biology in Hebei University of Science and Technology). The antiproliferative activities were assessed using the CCK-8 assay. Cell viability was measured according to the manufacturer’s instructions for the Cell Counting Kit-8 (Meilunbio, Dalian, China). In this assay, 2.5 × 10^3 cells per well were seeded into 96-well plates.
(§2) After an initial 12 h incubation, cancer cells were exposed to varying concentrations of compound 17c for 72 h. Following CCK-8 solution addition and 2 h incubation, the absorbance at 450 nm was measured using a BioTek Synergy HTX microplate reader. Experiments included triplicate wells with three independent replicates. The IC50 values for compound 17c were derived from an analysis of the dose–response curves in GraphPad PRISM 9.5.

MDA-MB-231 = assay: Antiproliferation CCK-8 assay, MDA-MB-231; type: cell-based; conditions: Homo sapiens, CCK-8, 72 h
Procedure: as §1, §2

HepG2 = assay: Antiproliferation CCK-8 assay, HepG2; type: cell-based; conditions: Homo sapiens, CCK-8, 72 h
Procedure: as §1, §2

Question: Which “oral bioavailability F” value [1] does the source give for `CCCCNc1ncc2c(-c3ccc(F)cc3)nn(CC3CCC(N)CC3)c2n1` (stereo not shown) [UNC569] here?
Answer: < 10%

Question: What about the “human microsomal t1/2” value [2] of the same compound?
Answer: < 15 min

Question: Which “t1/2 in human hepatocytes” value [3] does the source give for `CCCCNc1ncc2c(-c3ccc(CN4CCN(C)CC4)cc3)cn([C@H]3CC[C@H](O)CC3)c2n1` [UNC2025] here?
Answer: 68 min

Question: For `CCCCNc1ncc(-c2ccc(CN3CCOCC3)cn2)c(N[C@H]2CC[C@H](O)CC2)n1` [UNC2250], which “tumor volume reduction vs. control” value (xenograft models) is on record?
Answer: ~ 60%

Question: Which results are given for `COc1cc2nccc(Oc3ccc(NC(=O)C4(C(=O)Nc5ccc(F)cc5)CC4)cc3)c2cc1OC` [cabozantinib, reference compound]?
Answer: IC50 (HCT116): 15.6 ± 4.39 µM; IC50 (MDA-MB-231): 4.62 ± 0.54 µM; IC50 (HepG2): 7.87 ± 2.11 µM
